Experiments:
[1] = test system: immortalized human meibomian gland cells; assay: 13-cis RA-induced late apoptosis/necrosis; type: cell-based
[2] = test system: immortalized human meibomian gland epithelial cells; assay: Cellular morphology (terminal maturation, holocrine-like secretion); type: cell-based; conditions: azithromycin 10 μg/ml
Protocol: As an example of these experiments, immortalized human meibomian gland epithelial cells were cultured in the presence or absence of 10% fetal bovine serum. Cells were treated with an ethanol vehicle or azithromycin (10 μg/ml; Santa Cruz Biotechnology) for varying time periods. Cellular morphological appearance was recorded, cells were counted with a hemocytometer, and lipid accumulation was assessed by staining the cells with LipidTOX green neutral lipid stain (Invitrogen, Grand Island, N.Y.), according to reported methods. Staining fluorescent intensities were quantified by using ImageJ (http://rsbweb.nih.gov/ij/index.html). Statistical analyses were performed with Student's t-test (two-tailed, unpaired). Immortalized human meibomian gland epithelial cells ([…]; passages 20-22) were cultured in the presence or absence of 10% fetal bovine serum. Cells were treated with the ethanol vehicle or azithromycin (10 μg/mL) for varying periods. Cellular morphological appearance was recorded, cells were counted with a hemocytometer, and lipid accumulation was assessed by staining cells with LipidTOX green neutral lipid stain (Invitrogen Corp). Staining fluorescent intensities were quantified using ImageJ software (http://rsbweb.nih.gov/ij/index.html). Statistical analyses were performed with t test (2-tailed, unpaired).

[3] = test system: human meibomian gland epithelial cells; assay: Filipin III staining of free (unesterified) cholesterol; type: cell-based; conditions: 10 μg/ml, 5 days
Protocol: This section outlines the materials and methods that produced the experimental data. Immortalized human meibomian gland epithelial cells were cultured in the presence or absence of 10% fetal bovine serum. After reaching 80-90% confluence (˜5×10^6/well), cells were exposed to the vehicle (0.02% ethanol) or azithromycin (10 μg/ml) for 5 days and then processed for histological and biochemical procedures.
(§1) Cell numbers were enumerated with a hemocytometer. Cellular lipid and lysosome accumulation were examined by staining cells with: Filipin III (a fluorometric probe for identifying unesterified cholesterol), LipidTOX green neutral lipid stain, and LysoTracker® Red DND-99 (a fluorescent technique designed for labeling acidic organelles such as lysosomes). Lysosomal lamellar bodies were identified by transmission electron microscopy. In brief, after culture and treatment on 24 mm polycarbonate membrane transwell inserts (0.4 μm pore size), cells were fixed in a solution of 2% formaldehyde+2.5% glutaraldehyde, in 0.08 M sodium cacodylate buffer, pH 7.4, post-fixed with 2% osmium tetroxide in 0.1 M sodium cacodylate buffer, and stained en bloc with 2% aqueousuranyl acetate. […] Lipids were then evaluated with high-performance thin-layer chromatography. […] Image data were quantified with ImageJ (http://rsbweb.nib.gov/ij/index.html). […]

[4] = test system: human meibomian gland epithelial cells; assay: LysoTracker Red staining of lysosomes; type: cell-based; conditions: 10 μg/ml, 5 days
Protocol: This section outlines the materials and methods that produced the experimental data. Immortalized human meibomian gland epithelial cells were cultured in the presence or absence of 10% fetal bovine serum. […]
as §1, with “acetate. Samples were then dehydrated in graded ethyl alcohol solutions and embedded by using the tEPON-812 epoxy resin kit. Cross sections ([…]) were stained with 1% toluidine blue in 1% sodium tetraborate solution.” for “acetate.”

[5] = test system: human meibomian gland epithelial cells; assay: Transmission electron microscopy of lysosomal lamellar bodies; type: cell-based; conditions: 10 μg/ml, 5 days
Source text: Cell numbers were enumerated with a hemocytometer. Cellular lipid and lysosome accumulation were examined by staining cells with: Filipin III (a fluorometric probe for identifying unesterified cholesterol), LipidTOX green neutral lipid stain, and LysoTracker® Red DND-99 (a fluorescent technique designed for labeling acidic organelles such as lysosomes). Lysosomal lamellar bodies were identified by transmission electron microscopy. In brief, after culture and treatment on 24 mm polycarbonate membrane transwell inserts (0.4 μm pore size), cells were fixed in a solution of 2% formaldehyde+2.5% glutaraldehyde, in 0.08 M sodium cacodylate buffer, pH 7.4, post-fixed with 2% osmium tetroxide in 0.1 M sodium cacodylate buffer, and stained en bloc with 2% aqueousuranyl acetate. Samples were then dehydrated in graded ethyl alcohol solutions and embedded by using the tEPON-812 epoxy resin kit. Cross sections ([…]) were stained with 1% toluidine blue in 1% sodium tetraborate solution. Ultra-thin sections (60-90 nm) were imaged with a transmission electron microscope interfaced with a digital CCD camera. For biochemical assessments, cellular lipids were extracted with chloroform and methanol from samples with the same amount of protein. Lipids were then evaluated with high-performance thin-layer chromatography. […] Image data were quantified with ImageJ (http://rsbweb.nib.gov/ij/index.html). […]

[6] = topical 0.5, 1.0 and 1.5% AZM eye drops, for 24 hours; cited from earlier work
LNCaP cells = assay: Immunoblot of JAK2/STAT5 pathway in positive control cells; type: cell-based
Protocol: The disclosure turns now to sodium dodecyl sulfate-polyacrylamide gel, electrophoresis, and immunoblots. Cells were directly lysed in Laemmli buffer supplemented with 1% protease inhibitor cocktail (Sigma-Aldrich) and 5% β-mercaptoethanol (Sigma-Aldrich). Lysates were heated at 95° C. for 10 minutes, separated by sodium dodecyl sulfate-polyacrylamide gel electrophoresis on 10% Tris-glycine precast gels, and transferred to polyvinylidene difluoride membranes. Rabbit or mouse antibodies used were specific for phosphorylated Akt (p-Akt), pan-Akt, p-FoxO1, FoxO1, p-JAK2, JAK2, and β-actin; for p-ERK, ERK-2, STAT5, and the precursor form of SREBP-1; and for p-STAT5. Membranes were blocked with 5% bovine serum albumin in Tris-buffered saline containing 0.01% polysorbate 20. All primary antibodies were diluted to 1:1000 in blocking buffer except for p-Akt (1:4000), p-ERK (1:2000), ERK-2 (1:4000), SREBP-1 (1:200), and β-actin (1:10 000). Horseradish peroxidase-conjugated secondary antibodies were goat anti-rabbit IgG and Fc-specific goat anti-mouse IgG diluted to 1:5000. […]
FIGS. 9a, 9b, and 9c illustrate the effects of insulin-like growth factor 1 (IGF-1) and growth hormone (GH) on signaling pathways in human meibomian gland epithelial cells. […] Cell lysates were evaluated on immunoblotting. […]

## IGF-1: recombinant human insulin-like growth factor 1
[1]
  13-cis RA-induced late apoptosis/necrosis: attenuates

## CC[C@H]1OC(=O)[C@H](C)[C@@H](O[C@H]2C[C@@](C)(OC)[C@@H](O)[C@H](C)O2)[C@H](C)[C@@H](O[C@@H]2O[C@H](C)C[C@H](N(C)C)[C@H]2O)[C@](C)(O)C[C@@H](C)CN(C)[C@H](C)[C@@H](O)[C@]1(C)O [Azithromycin]
[2]
  terminal maturation and holocrine-like secretion: promote terminal maturation
[3]
  accumulation of free cholesterol (Filipin): significantly stimulates the accumulation
[4]
  accumulation of lysosomes (LysoTracker): significantly stimulates the accumulation
[5]
  lysosomal lamellar bodies: many of these lysosomes appear to be onion-shaped lamellar bodies
[6]
  tear concentration: above 7 μg/ml

## GH: human growth hormone
LNCaP cells
  activation of JAK2/STAT5 pathway: activated the JAK2/STAT5 pathway

— patent US20200297820A1, “STIMULATION OF HUMAN MEIBOMIAN GLAND FUNCTION” (The Schepens Eye Research Institute, Inc., priority 2013, published 2020)
